{
  "source": "patent US11945794B2",
  "about": "“Nuclear transport modulators and uses thereof” (Karyopharm Therapeutics Inc., priority 2013, dated 2024)",
  "format_in_all_cases": "cell-based",
  "key": {"wild-type CRM1": {"target": "T1, wild-type CRM1 (Homo sapiens, UniProt O14980)", "T1 construct": "expressed in transfected cells; host or cells: U2OS (osteosarcoma) cells stably expressing Rev-GFP", "experiment": "Cys 528 mutation assay, Rev-GFP localization", "settings": "30 μM, 4 hours, U2OS Rev-GFP cells", "protocol": "(§1) U2OS (osteosarcoma) cells stably expressing GFP-tagged HIV-Rev fused to the cAMP-dependent protein kinase inhibitor (PM) nuclear export signal (Rev-GFP) were transiently transfected with constructs expressing wild-type CRM1 or mutant CRM1-Cys528Ser for 36 hours. The transient transfection efficiency in the experiment was estimated to be 50%."}, "mutant CRM1-Cys528Ser": {"target": "T2, mutant CRM1-Cys528Ser (Homo sapiens, UniProt O14980, C528S)", "T2 construct": "expressed in transfected cells; host or cells: U2OS (osteosarcoma) cells stably expressing Rev-GFP", "T2 sequence (O14980 whole entry C528S)": "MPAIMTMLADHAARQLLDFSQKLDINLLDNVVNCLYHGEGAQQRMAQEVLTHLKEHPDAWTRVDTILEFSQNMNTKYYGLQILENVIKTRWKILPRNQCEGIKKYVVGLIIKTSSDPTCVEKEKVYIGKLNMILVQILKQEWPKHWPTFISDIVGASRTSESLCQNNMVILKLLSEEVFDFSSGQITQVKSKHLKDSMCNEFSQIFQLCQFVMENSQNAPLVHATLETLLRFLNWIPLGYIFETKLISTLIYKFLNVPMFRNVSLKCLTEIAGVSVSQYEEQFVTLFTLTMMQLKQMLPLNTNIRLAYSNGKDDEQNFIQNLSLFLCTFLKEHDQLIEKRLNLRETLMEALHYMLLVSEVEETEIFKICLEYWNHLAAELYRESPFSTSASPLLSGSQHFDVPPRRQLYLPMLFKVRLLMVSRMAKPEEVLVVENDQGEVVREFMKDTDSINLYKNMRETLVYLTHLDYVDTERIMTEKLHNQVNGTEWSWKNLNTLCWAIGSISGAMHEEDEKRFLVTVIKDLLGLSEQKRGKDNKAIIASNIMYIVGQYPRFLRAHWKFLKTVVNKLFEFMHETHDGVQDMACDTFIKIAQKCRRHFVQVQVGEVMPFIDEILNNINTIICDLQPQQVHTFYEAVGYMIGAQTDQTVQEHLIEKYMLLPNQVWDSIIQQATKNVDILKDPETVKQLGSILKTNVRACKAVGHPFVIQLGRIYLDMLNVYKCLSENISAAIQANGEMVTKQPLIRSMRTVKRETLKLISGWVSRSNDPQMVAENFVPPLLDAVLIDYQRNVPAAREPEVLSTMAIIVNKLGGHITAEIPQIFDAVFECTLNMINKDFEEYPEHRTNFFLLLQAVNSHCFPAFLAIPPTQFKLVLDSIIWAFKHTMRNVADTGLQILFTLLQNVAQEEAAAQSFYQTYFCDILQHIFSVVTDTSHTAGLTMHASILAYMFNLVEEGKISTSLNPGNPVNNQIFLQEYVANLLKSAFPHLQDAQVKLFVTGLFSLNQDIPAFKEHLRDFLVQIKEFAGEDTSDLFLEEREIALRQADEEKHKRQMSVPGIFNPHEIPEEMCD", "experiment": "Cys 528 mutation assay, Rev-GFP localization", "settings": "30 μM, U2OS Rev-GFP cells", "protocol": "as §1"}, "3T3 cells": {"tested_on": "3T3 cells", "experiment": "MTT cell proliferation assay", "settings": "Mus musculus, NIH3T3, approximately 64-72 hours", "outline": "(§2)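 Cells seeded at 5,000-10,000 per well attached overnight, then received eight compound concentrations from 1 nM to 30 μM. Viability was measured by MTT (about 4 h) with OD read at 490 nm. Percent inhibition versus negative control, mostly from duplicates, was reported as mean±SE.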"}, "MM1S cells": {"tested_on": "MM1S cells", "experiment": "MTT cell proliferation assay", "settings": "Homo sapiens, MM1.S, approximately 64-72 hours", "outline": "as §2"}, "Z138 cells": {"tested_on": "Z138 cells", "experiment": "MTT cell proliferation assay", "settings": "Homo sapiens, Z-138, approximately 64-72 hours", "outline": "as §2"}},
  "data": [
    {"compound": "NC(=O)/C(=C/n1cnc(-c2cc(C(F)(F)F)cc(C(F)(F)F)c2)n1)c1cncnc1", "note": "[Compound 124, (E)-3-(3-(3,5-bis(trifluoromethyl)phenyl)-1H-1,2,4-triazol-1-yl)-2-(pyrimidin-5-yl)acrylamide]", "values": [
      {"measurement": "Rev-GFP localization, wild-type CRM1 co-expressed", "setting": "wild-type CRM1", "result": "Rev-GFP was localized to the cell nucleus and nucleolus"},
      {"measurement": "Rev-GFP localization, mutant CRM1-Cys528Ser co-expressed", "setting": "mutant CRM1-Cys528Ser", "result": "did not induce nuclear localization of Rev-GFP"},
      {"measurement": "IC50", "setting": "3T3 cells", "result": "5000 to 30000", "unit": "nM"},
      {"measurement": "IC50", "setting": "MM1S cells", "result": "< 100", "unit": "nM"},
      {"measurement": "IC50", "setting": "Z138 cells", "result": "< 100", "unit": "nM"}
    ]}
  ]
}
